Reference: patent publication US20230234969A1, “N-LINKED MACROCYCLIC 7-(PYRAZOL-5-YL)-INDOLE DERIVATIVES AS INHIBIORS OF MCL-1” (Janssen Pharmaceutica NV, priority 2020, published 2023)

How the values were obtained:
[1] = biological target: Myeloid Cell Leukemia 1 (Mcl-1) (Homo sapiens, UniProt Q07820); assay: Terbium labeled Mcl-1 HTRF binding assay, displacement of Cy5-labeled BIM BH3 peptide; conditions: 25 pM Tb-Mcl-1, 8 nM Cy5 Bim peptide, Ki=IC50/(1+[L]/Kd), [L]=8 nM, Kd=10 nM, 60 min room temperature, read-out: Tb-MCLl Ki
Experimental: Terbium labeled Myeloid Cell Leukemia 1 (Mcl-1) homogeneous time-resolved fluorescence (HTRF) binding assay utilizing the BIM BH3 peptide (H2N-(C/Cy5Mal) WIAQELRRIGDEFN-OH) as the binding partner for Mcl-1.
This assay evaluated inhibition of the BH3 domain: Mcl-1 interaction by measuring the displacement of Cy5-labeled BIM BH3 peptide (H2N—(C/Cy5Mal) WIAQELRRIGDEFN-OH) in the HTRF assay format.
The following assay and stock buffers were prepared for use in the assay: (a) Stock buffer: 10 mM Tris-HCl, pH=7.5+150 mM NaCl, filtered, sterilized, and stored at 4° C.; and (b) 1×assay buffer, where the following ingredients were added fresh to stock buffer: 2 mM dithiothreitol (DTT), 0.0025% Tween-20, 0.1 mg/mL bovine serum albumin (BSA). The 1×Tb-Mcl-1+Cy5 Bim peptide solution was prepared by diluting the protein stock solution using the 1×assay buffer (b) to 25 pM Tb-Mcl-1 and 8 nM Cy5 Bim peptide.
Using the Acoustic ECHO, 100 nL of 100×test compound(s) were dispensed into individual wells of a white 384-well Perkin Elmer Proxiplate, for a final compound concentration of 1× and final DMSO concentration of 1%. Inhibitor control and neutral control (NC, 100 nL of 100% DMSO) were stamped into columns 23 and 24 of assay plate, respectively. Into each well of the plate was then dispensed 10 μL of the 1×Tb-Mcl-1+Cy5 Bim peptide solution. The plate was centrifuged with a cover plate at 1000 rpm for 1 minute, then incubated for 60 minutes at room temperature with plates covered. The TR-FRET signal was read on an BMG PHERAStar FSX MicroPlate Reader at room temperature using the HTRF optic module (HTRF: excitation: 337 nm, light source: laser, emission A: 665 nm, emission B: 620 nm, integration start: 60 μs, integration time: 400 μs).
The BMG PHERAStar FSX MicroPlate Reader was used to measure fluorescence intensity at two emission wavelengths—665 nm and 620 nm—and report relative fluorescence units (RFU) for both emissions, as well as a ratio of the emissions (665 nm/620 nm)*10,000. The RFU values were normalized to percent inhibition as follows:
% inhibition=(((NC−IC)−(compound−IC))/(NC−IC))*100
where IC (inhibitor control, low signal)=mean signal of 1×Tb-MCl-1+Cy5 Bim peptide+inhibitor control or 100% inhibition of Mcl-1; NC (neutral control, high signal)=mean signal 1×Tb-MCl-1+Cy5 Bim peptide with DMSO only or 0% inhibition
An 11-point dose response curve was generated to determine IC50 values (using GenData) based on the following equation:
Y=Bottom+(Top−Bottom)/(1+10^((log IC50−X)*HillSlope))
where Y=% inhibition in the presence of X inhibitor concentration; Top=100% inhibition derived from the IC (mean signal of Mcl-1+inhibitor control); Bottom=0% inhibition derived from the NC (mean signal of Mcl-1+DMSO); Hillslope=Hill coefficient; and IC50=concentration of compound with 50% inhibition in relation to top/neutral control (NC).
In this assay [L]=8 nM and Kd=10 nM
Representative compounds of the present invention were tested according to the procedure as described above, with results as listed in the Table below (n.d. means not determined).

[2] = tested on: MOLP-8 human multiple myeloma cell line; assay: Caspase-Glo 3/7 assay in MOLP-8 cells (apoptosis induction); type: cell-based; conditions: MOLP8 cells, 2 hours incubation at 37° C.; averaged values over all runs on all batches
Text: MCL-1 is a regulator of apoptosis and is highly over-expressed in tumor cells that escape cell death. The assay evaluates the cellular potency of small-molecule compounds targeting regulators of the apoptosis pathway, primarily MCL-1, Bfl-1, Bcl-2, and other proteins of the Bcl-2 family. Protein-protein inhibitors disrupting the interaction of anti-apoptotic regulators with BH3-domain proteins initiate apoptosis.
The Caspase-Glo® 3/7 Assay is a luminescent assay that measures caspase-3 and -7 activities in purified enzyme preparations or cultures of adherent or suspension cells. The assay provides a proluminescent caspase-3/7 substrate, which contains the tetrapeptide sequence DEVD. This substrate is cleaved to release aminoluciferin, a substrate of luciferase used in the production of light. Addition of the single Caspase-Glo® 3/7 Reagent in an “add-mix-measure” format results in cell lysis, followed by caspase cleavage of the substrate and generation of a “glow-type” luminescent signal.
This assay uses the MOLP-8 human multiple myeloma cell line, which is sensitive to MCL-1 inhibition.
Cell cultures were maintained between 0.2 and 2.0×10^6 cells/mL. The cells were harvested by collection in 50 mL conical tubes. The cells were then pelleted at 500 g for 5 mins before removing supernatant and resuspension in fresh pre-warmed culture medium. The cells were counted and diluted as needed.
The assay reagent was prepared by transferring the buffer solution to the substrate vial and mixing. The solution may be stored for up to 1 week at 4° C. with negligible loss of signal.
Compounds were delivered in assay-ready plates (Proxiplate) and stored at −20° C. Assays always include 1 reference compound plate containing reference compounds. The plates were spotted with 40 nL of compounds (0.5% DMSO final in cells; serial dilution; 30 μM highest conc. 1/3 dilution, 10 doses, duplicates). The compounds were used at room temperature and 4 μL of pre-warmed media was added to all wells except column 2 and 23. The negative control was prepared by adding 1% DMSO in media. The positive control was prepared by adding the appropriate positive control compound in final concentration of 60 μM in media. The plate was prepared by adding 4 μL negative control to column 23, 4 μL positive control to column 2 and 4 μL cell suspension to all wells in the plate. The plate with cells was then incubated at 37° C. for 2 hours. The assay signal reagent is the Caspase-Glo solution described above, and 8 μL was added to all wells. The plates were then sealed and measured after 30 minutes.
The activity of a test compound was calculated as percent change in apoptosis induction as follows:
[formula] % Effect (AC50)=100−((sample−LC)/(HC−LC))*100
% Control=(sample/HC)*100
% Control min=(sample−LC)/(HC−LC)*100

Myeloid Cell Leukemia 1 (Mcl-1), sequence (Q07820 whole entry): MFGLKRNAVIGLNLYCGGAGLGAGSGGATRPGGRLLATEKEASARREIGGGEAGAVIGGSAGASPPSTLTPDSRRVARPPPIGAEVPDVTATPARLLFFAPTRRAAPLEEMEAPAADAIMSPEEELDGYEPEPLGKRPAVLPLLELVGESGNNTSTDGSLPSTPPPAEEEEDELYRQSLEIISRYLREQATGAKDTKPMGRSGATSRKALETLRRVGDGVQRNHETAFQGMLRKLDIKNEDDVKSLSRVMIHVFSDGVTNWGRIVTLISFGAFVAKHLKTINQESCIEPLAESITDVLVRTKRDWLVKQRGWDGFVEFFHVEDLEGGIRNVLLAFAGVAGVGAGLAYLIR

Row | SMILES | Ki [1] [nM] | AC50 [2] [nM]
1 | Cc1nn2c(c1C)-c1c(Cl)ccc3c(c(C(=O)O)n(C)c13)CCCOc1cc(cc3ccccc13)SCc1cc(nn1C)CCC2 (single isomer, unassigned) [Compound 1] | 0.09 | 67
2 | Cc1nn2c(c1C)-c1c(Cl)ccc3c(c(C(=O)O)n(C)c13)CCCOc1cc(cc3ccccc13)SCc1cc(nn1C)CCC2 (single isomer, unassigned) [Compound 2] | 3.21 | 2710
3 | CCn1c(C(=O)O)c2c3ccc(Cl)c(c31)-c1c(C)c(C)nn1CCCc1cc(n(C)n1)CCc1cc(c3ccc(F)cc3c1)OCCC2 (single isomer, unassigned) [Compound 3] | 0.043 | 36
4 | CCn1c(C(=O)O)c2c3ccc(Cl)c(c31)-c1c(C)c(C)nn1CCCc1cc(n(C)n1)CCc1cc(c3ccc(F)cc3c1)OCCC2 (single isomer, unassigned) [Compound 4] | 33.7 | 13100
5 | COCCOCCn1c(C(=O)O)c2c3ccc(Cl)c(c31)-c1c(C)c(C)nn1CCCc1cc(n(C)n1)CCc1cc(c3ccc(F)cc3c1)OCCC2 (single isomer, unassigned) [Compound 5] | 0.027 | 27
6 | COCCOCCn1c(C(=O)O)c2c3ccc(Cl)c(c31)-c1c(C)c(C)nn1CCCc1cc(n(C)n1)CCc1cc(c3ccc(F)cc3c1)OCCC2 (single isomer, unassigned) [Compound 6] | 1.93 | 1930
7 | CCn1c(C(=O)O)c2c3ccc(Cl)c(c31)-c1c(C)c(C)nn1CCCc1cc(n(CCN(C)C)n1)CCc1cc(c3ccc(F)cc3c1)OCCC2 (single isomer, unassigned) [Compound 7] | 0.052 | 16
8 | CCn1c(C(=O)O)c2c3ccc(Cl)c(c31)-c1c(C)c(C)nn1CCCc1cc(n(CCN(C)C)n1)CCc1cc(c3ccc(F)cc3c1)OCCC2 (single isomer, unassigned) [Compound 8] | 8.06 | 1560
9 | CCn1c(C(=O)O)c2c3ccc(Cl)c(c31)-c1c(C)c(C)nn1CCCc1cc(n(CCOC)n1)CCc1cc(c3ccc(F)cc3c1)OCCC2 (single isomer, unassigned) [Compound 9] | 0.061 | 53
10 | CCn1c(C(=O)O)c2c3ccc(Cl)c(c31)-c1c(C)c(C)nn1CCCc1cc(n(CCOC)n1)CCc1cc(c3ccc(F)cc3c1)OCCC2 (single isomer, unassigned) [Compound 10] | 3.06 | 3060
